Source: patent US20110098309A1, “METHODS OF INHIBITING THE FORMATION OF AMYLOID-BETA DIFFUSABLE LIGANDS USING ACYLHYDRAZIDE COMPOUNDS” (priority 2007, published 2011)
Where “and” joins values, the source holds several entries; their conditions need not be identical. Equal values may be shown once.

Key:
[1] = biological target: T1, Aβ1-42 ADDLs (Homo sapiens, UniProt P05067); experiment: Alternating Lever Cyclic Ratio (ALCR) rat model; type: in vivo; settings: for Approach Errors / Perseveration Errors: injection via cannula into lateral ventricle, compared to baseline error rates
T1 construct: Synthetic Aβ1-42 powder was dissolved in 1,1,1,3,3,3-hexafluorisopropanol (HFIP)
T1 sequence (P05067 672-713 limits assumed): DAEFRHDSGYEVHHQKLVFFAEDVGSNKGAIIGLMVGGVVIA
Method: Preparations of Aβ1-42 ADDLs and a potential therapeutic compound under the Alternating Lever Cyclic Ratio (ALCR) rat model of AD were tested to show in vivo efficacy. This highly sensitive model has been able to detect cognitive deficits due to direct injection of cell-derived Aβ oligomers into rat brain. Using this technique, a direct injection of ADDLs made from synthetic Aβ1-42 and a putative therapeutic compound under the ALCR procedure were tested.
In this task, rats learned a complex sequence of lever-pressing requirements in order to earn food reinforcement in a two-lever experimental chamber. Subjects alternated between two levers by switching to the other lever after pressing the first lever enough to get food reward. The exact number of presses required for each food reward changed, first increasing from 2 responses per food pellet up to 56 presses per food pellet, then decreasing back to 2 responses per pellet. Intermediate values were based on the quadratic function, x^2−x. One cycle was an entire ascending and descending sequence of these lever press requirements (e.g., 2, 6, 12, 20, 30, 42, 56, 56, 42, 30, 20, 12, 6, and 2 presses per food reward). Six such full cycles were presented during each daily session.
Synthetic Aβ1-42 powder was dissolved in 1,1,1,3,3,3-hexafluorisopropanol (HFIP) to afford a solution of Aβ1-42 in HFIP of about 1 mM and allowed to incubate at ambient temperature for about 1 h. The resulting solution was chilled on ice for about 5-10 min, then aliquoted into eppendorf tubes to provide about 50 μL of solution per tube. The tubes were then placed in a chemical fume hood and allowed to stand overnight to allow the HFIP to evaporate under a slow stream of nitrogen. To remove final traces of HFIP, the tubes were subjected to two SpeedVac cycles of 15 min at room temperature and about 15 to 25 mm Hg of vacuum. The resulting films of monomerized Aβ1-42 peptide were stored over desiccant at −80° C. until used.
A tube of monomerized Aβ1-42 peptide was warmed to room temperature and the Aβ1-42 peptide was dissolved in anhydrous DMSO to afford a peptide stock DMSO solution containing about 10 μM to about 100 μM Aβ1-42 peptide in DMSO.
The concentration of the test compound is listed below in Table 3.
For the Aβ1-42 peptide only treatment, peptide stock DMSO solution was added to 37° C. neural basal to obtain the requisite Aβ1-42 peptide monomer concentration, provided that the maximum concentration of DMSO is 1% or less, and the tube was vortexed for 30 to 60 seconds, spun down briefly in a microfuge and incubated at 37° C. for 15 min prior to the start of injections.
For the Aβ1-42 peptide plus test compound treatment, peptide stock DMSO solution was added to 37° C. compound neural basal media solution to obtain the requisite Aβ1-42 peptide monomer concentration, provided that the maximum concentration of DMSO is 1% or less, and the tube was vortexed for 30 to 36 seconds, spun down briefly in a microfuge and incubated at 37° C. for 15 min prior to the start of injections.
For control injections, compound neural basal media solution was incubated at 37° C. for 15 min prior to the start of injections.
Rats: Rats are trained under ALCR until their error rates are stable. Once the rats are placed upon the final ALCR procedure, training sessions are conducted 7 days each week until the end of the study.
Surgery: All rats received a single 28 gauge cannula, which was permanently affixed to the skull, and aimed at the lateral ventricle. Half of the rats received cannula in the right ventricle and half receive cannula in the left ventricle. Rats were allowed 5 days to recover from surgery before training resumed.
Injection of Test Material and ALCR Testing: Test were conducted about every fourth day. Animals received a 10-20 μL injection of control, peptide, or peptide plus compound solutions via the implanted cannula over about 3 to 4 minutes. Animals were tested about 3 hours following injection. […]

[2] = biological target: Aβ1-42 (Homo sapiens, UniProt P05067); experiment: FRET assay of Aβ1-42 oligomer (ADDL) assembly inhibition; type: biochemical; settings: 0.2 μM FITC-Aβ(1-42) and 0.8 μM Aβ(1-42), 37° C., six concentrations from about 10 μM to about 0.03 μM
Chain of Aβ1-42 (P05067 672-713 limits assumed): as above
Summary of the method: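 Fluorescein-quenching FRET read with 0.2 μM FITC-Aβ(1-42) plus 0.8 μM Aβ(1-42) in 25 mM MOPS-Tris pH 8.0, 100 mM MgCl2, 37° C. Compound tested at six concentrations from about 10 μM down to about 0.03 μM. Fluorescence read every five minutes over about three hours; inhibition seen as absent or attenuated quenching.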

[3] = 1 nM ADDLs + 2 μM compound, rats tested about 3 hours after injection
[4] = 2 μM compound alone (no ADDLs), rats
[5] = ADDLs injected along with compound, rats
[6] = 27 nM Aβ1-42 monomer alone, rats

ADDLs: amyloid beta-derived diffusable ligands: soluble, oligomeric, globular, non-fibrillar, neurotoxic Aβ1-42 peptides, made from synthetic Aβ1-42 [reference compound]
Approach Errors ([1]; 1 nM ADDLs alone, rats): 102% and 142%
Perseveration Errors ([1]; 1 nM ADDLs alone, rats): 133% and 127%
Perseveration error (in words) ([1]; ADDLs compared to vehicle or Aβ1-42 monomer alone, rats): increased the Perseveration error

O=C(C/C(=N/NC(=O)c1ccccc1O)C(F)(F)F)c1cccs1 [Compound 2, 2-hydroxy-N′-(1,1,1-trifluoro-4-oxo-4-(thiophen-2-yl)butan-2-ylidene)benzohydrazide]
IC50 [2]: 4.5 µM
Approach Errors [1, 3]: 115%
Perseveration Errors [1, 3]: 105%
Approach Errors [1, 4]: 92%
Perseveration Errors [1, 4]: 85%
Perseveration error (in words) [1, 5]: decreased significantly

Aβ1-42 Monomer: monomerized synthetic Aβ1-42 peptide [reference compound]
Approach Errors [1, 6]: 105%
Perseveration Errors [1, 6]: 117%

O=C(N/N=C/c1c(O)ccc2ccccc12)c1ccccc1O [Compound 89, 2-hydroxy-N′-((2-hydroxy-naphthalen-1-yl)methylene)benzohydrazide]
Approach Errors [1, 3]: 100% and 111%
Perseveration Errors [1, 3]: 92% and 107%
Approach Errors [1, 4]: 101%
Perseveration Errors [1, 4]: 112%
Perseveration error (in words) [1, 5]: decreased significantly
